Measurements: the supplement of paper PMC10307832

What was measured:
Test in all cases: relative viability (nuclei count vs DMSO), 5 days (fraction); higher = more cells survive
Imatinib + Palbociclib = compound: Cc1ccc(NC(=O)c2ccc(CN3CCN(C)CC3)cc2)cc1Nc1nccc(-c2cccnc2)n1 [Imatinib] + CC(=O)c1c(C)c2cnc(Nc3ccc(N4CCNCC4)cn3)nc2n(C2CCCC2)c1=O [Palbociclib] (partner 0.5 µM)
How it was run: (§1)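 Relative viability was taken as the ratio of nuclei in treated wells to nuclei in vehicle wells. Lung cancer cell lines in 1536-well plates received compounds by pin tool one day after seeding, either one drug alone or a fixed anchor-drug dose plus five library-drug doses (not always all listed) in √10 steps. Nuclei were counted on 4× images after 5 days of treatment, and values are medians of duplicate plates.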

Imatinib + Luminespib = compound: Cc1ccc(NC(=O)c2ccc(CN3CCN(C)CC3)cc2)cc1Nc1nccc(-c2cccnc2)n1 [Imatinib] + CCNC(=O)c1noc(-c2cc(C(C)C)c(O)cc2O)c1-c1ccc(CN2CCOCC2)cc1 [Luminespib] (partner 0.01 µM)
How it was run: as §1

Imatinib + OSI-027 = compound: Cc1ccc(NC(=O)c2ccc(CN3CCN(C)CC3)cc2)cc1Nc1nccc(-c2cccnc2)n1 [Imatinib] + COc1cccc2cc(-c3nc([C@H]4CC[C@H](C(=O)O)CC4)n4ncnc(N)c34)[nH]c12 [OSI-027] (partner 0.5 µM)
How it was run: as §1

Imatinib = compound: Cc1ccc(NC(=O)c2ccc(CN3CCN(C)CC3)cc2)cc1Nc1nccc(-c2cccnc2)n1 [Imatinib]
How it was run: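 Hoechst staining, done together with fixation and permeabilisation, marked nuclei for 4× imaging and MetaXpress counting. This followed 5 days without medium change after lung cancer cell lines, kept overnight at 37 °C in 1536-well plates, were pinned with five library-drug doses (not always all listed) spaced by √10 on vehicle-anchored plates. Viability is the ratio of treated-well to vehicle-well nuclei, expressed as a median across plates. Plates passed only at control CV below 25% with at least one doubling.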

| Cell Line | relative viability (Imatinib + Palbociclib; first compound 0.02 µM) | relative viability (Imatinib + Palbociclib; first compound 0.2 µM) | relative viability (Imatinib + Palbociclib; first compound 0.6325 µM) | relative viability (Imatinib + Luminespib; first compound 0.06325 µM) | relative viability (Imatinib + Luminespib; first compound 0.2 µM) | relative viability (Imatinib + Luminespib; first compound 0.6325 µM) | relative viability (Imatinib + Luminespib; first compound 2 µM) | relative viability (Imatinib + OSI-027; first compound 0.06325 µM) | relative viability (Imatinib + OSI-027; first compound 0.2 µM) | relative viability (Imatinib + OSI-027; first compound 0.6325 µM) | relative viability (Imatinib + OSI-027; first compound 2 µM) | relative viability (Imatinib; 0.02 µM) | relative viability (Imatinib; 0.06325 µM) | relative viability (Imatinib; 0.2 µM) | relative viability (Imatinib; 0.6325 µM) | relative viability (Imatinib + Palbociclib; first compound 0.06325 µM) | relative viability (Imatinib + Palbociclib; first compound 2 µM) | relative viability (Imatinib + Luminespib; first compound 0.02 µM) | relative viability (Imatinib + OSI-027; first compound 0.02 µM) | relative viability (Imatinib; 2 µM) |
| --- | --- | --- | --- | --- | --- | --- | --- | --- | --- | --- | --- | --- | --- | --- | --- | --- | --- | --- | --- | --- |
| EKVX | 0.377 | 0.384 | 0.456 | 0.712 | 0.817 | 0.926 | 0.847 | 0.388 | 0.65 | 0.551 | 0.868 | 1.03 | 0.763 | 1 | 1.01 | – | – | – | – | – |
| EMC-BAC-2 | 0.525 | 0.514 | 0.553 | 1.5 | 1.36 | 1.14 | – | 0.338 | 0.39 | 0.399 | 0.364 | 1.03 | 0.952 | 1.13 | 1.09 | 0.571 | 0.517 | 1.25 | 0.378 | 1.01 |
| EPLC-272H | 0.309 | – | 0.34 | – | 0.456 | 0.306 | 0.14 | – | 0.273 | 0.311 | 0.249 | 1.16 | – | 0.884 | 1.07 | – | 0.297 | 0.312 | 0.265 | 0.87 |
| H3255 | 0.316 | 0.317 | 0.338 | 0.415 | – | 0.865 | 0.777 | 0.662 | 0.539 | 0.612 | 0.548 | 1.05 | 0.749 | 0.893 | 1.06 | 0.325 | 0.308 | 0.922 | 0.568 | 0.899 |
| HARA | 0.262 | 0.264 | 0.281 | – | 0.684 | 0.489 | 0.997 | – | 0.518 | 0.583 | 0.404 | 1.06 | – | 1.07 | 0.993 | – | 0.262 | 0.912 | 0.47 | – |
| HCC-15 | 0.496 | 0.822 | 0.778 | – | 0.358 | 0.33 | 0.297 | – | 0.623 | 0.683 | 0.666 | 1.03 | – | 1.1 | 1.1 | – | 0.713 | 0.311 | 0.716 | – |
| HCC-44 | 0.976 | 1.1 | – | 0.552 | – | 0.959 | – | 0.422 | 0.437 | 0.466 | 0.461 | 0.998 | 0.945 | 1.12 | – | – | 0.885 | 1.24 | 0.484 | 0.893 |
| HCC-78 | 0.468 | 0.528 | 0.452 | – | – | – | – | 0.387 | 0.389 | 0.366 | 0.314 | 0.901 | 0.797 | 1.06 | 0.89 | 0.527 | 0.499 | – | 0.332 | 0.904 |
| HCC-366 | 0.435 | 0.502 | 0.35 | – | – | – | – | – | 1.05 | 0.812 | 0.748 | 0.978 | 0.856 | 1.06 | 1.07 | 0.425 | 0.412 | – | 1.01 | 0.988 |
| HCC-827 | 0.474 | 0.516 | 0.461 | 0.322 | 0.807 | 0.545 | 0.729 | 0.732 | 0.937 | 0.705 | 0.824 | – | 1.04 | – | 1.05 | 0.557 | 0.455 | – | – | 1.03 |
